Values quoted from earlier work, collected in publication PMC5523132 (ACS chemical biology, 2016).

Details: cited from earlier work

Molecule | half-life (adult rats) | clearance half-life (in the rat)
O=C([O-])CN1CCN(CC(=O)[O-])CCN(CC(=O)[O-])CCN(CC(=O)[O-])CC1.[Gd+3] [[Gd•DOTA], reference compound] | roughly 19 minutes | 
RSA: rat serum albumin |  | approx. 48 hours
